Measured values from patent publication US20240398893A1, “ANTI-CORONAVIRUS POLYPEPTIDE AS WELL AS DERIVATIVE AND APPLICATION THEREOF” (priority 2021, published 2024).

What follows are compounds tested on pseudovirus of SARS-COV-2 variant Omicron (BA.1). Conditions: pseudovirus of variant Omicron (BA.1).

SMILES | EC50
CC[C@H](C)[C@H](NC(=O)CNC(=O)[C@H](CO)NC(=O)[C@@H](NC(=O)[C@H](CC(=O)O)NC(=O)CNC(=O)[C@H](Cc1ccccc1)NC(=O)[C@H](CCCCN)NC(=O)[C@@H](N)C(C)C)[C@@H](C)CC)C(=O)N[C@@H](CC(N)=O)C(=O)N[C@@H](C)C(=O)N[C@@H](CO)C(=O)N[C@H](C(=O)N[C@H](C(=O)N[C@@H](CC(N)=O)C(=O)N[C@H](C(=O)N[C@@H](CCCCN)C(=O)N[C@@H](CCC(=O)O)C(=O)N[C@@H](CCC(=O)O)C(=O)N[C@H](C(=O)N[C@@H](CC(=O)O)C(=O)N[C@@H](CCCNC(=N)N)C(=O)N[C@@H](CC(C)C)C(=O)N[C@@H](Cc1ccc(O)cc1)C(=O)N[C@@H](CCC(=O)O)C(=O)N[C@H](C(=O)N[C@H](C(=O)N[C@@H](CCCCN)C(=O)N[C@@H](CC(N)=O)C(=O)N[C@@H](CC(C)C)C(=O)N[C@@H](CC(N)=O)C(=O)N[C@@H](CCC(=O)O)C(=O)N[C@@H](CO)C(=O)N[C@@H](CC(C)C)C(=O)N[C@H](C(=O)N[C@@H](CC(=O)O)C(=O)N[C@@H](CC(C)C)C(=O)N[C@@H](CCC(N)=O)C(=O)N[C@@H](CCC(=O)O)C(=O)N[C@@H](CC(C)C)C(=O)NCC(=O)N[C@@H](CO)C(=O)NCC(=O)N[C@@H](CO)C(=O)NCC(=O)N[C@@H](CSCC(=O)O[C@H]1CC[C@@]2(C)C(=CC[C@H]3[C@@H]4CC[C@H]([C@H](C)CCCC(C)C)[C@@]4(C)CC[C@@H]32)C1)C(N)=O)[C@@H](C)CC)C(C)C)C(C)C)[C@@H](C)CC)[C@@H](C)CC)C(C)C)C(C)C [P3-3-GS-Chol] | 1730 nM
CC[C@H](C)[C@H](NC(=O)CNC(=O)[C@H](CO)NC(=O)[C@@H](NC(=O)[C@H](CC(=O)O)NC(=O)CNC(=O)[C@H](Cc1ccccc1)NC(=O)[C@H](CCCCN)NC(=O)[C@@H](N)C(C)C)[C@@H](C)CC)C(=O)N[C@@H](CC(N)=O)C(=O)N[C@@H](C)C(=O)N[C@@H](CO)C(=O)N[C@H](C(=O)N[C@H](C(=O)N[C@@H](CC(N)=O)C(=O)N[C@H](C(=O)N[C@@H](CCCCN)C(=O)N[C@@H](CCC(=O)O)C(=O)N[C@@H](CCC(=O)O)C(=O)N[C@H](C(=O)N[C@@H](CC(=O)O)C(=O)N[C@@H](CCCNC(=N)N)C(=O)N[C@@H](CC(C)C)C(=O)N[C@@H](Cc1ccc(O)cc1)C(=O)N[C@@H](CCC(=O)O)C(=O)N[C@H](C(=O)N[C@H](C(=O)N[C@@H](CCCCN)C(=O)N[C@@H](CC(N)=O)C(=O)N[C@@H](CC(C)C)C(=O)N[C@@H](CC(N)=O)C(=O)N[C@@H](CCC(=O)O)C(=O)N[C@@H](CO)C(=O)N[C@@H](CC(C)C)C(=O)N[C@H](C(=O)N[C@@H](CC(=O)O)C(=O)N[C@@H](CC(C)C)C(=O)N[C@@H](CCC(N)=O)C(=O)N[C@@H](CCC(=O)O)C(=O)N[C@@H](CC(C)C)C(=O)N[C@@H](CSCC(=O)NCCOCCOCCOCCOCC(=O)O[C@H]1CC[C@@]2(C)C(=CC[C@H]3[C@@H]4CC[C@H]([C@H](C)CCCC(C)C)[C@@]4(C)CC[C@@H]32)C1)C(N)=O)[C@@H](C)CC)C(C)C)C(C)C)[C@@H](C)CC)[C@@H](C)CC)C(C)C)C(C)C [P3-3-PEG-Chol] | 571 nM
CC[C@H](C)[C@H](NC(=O)CNC(=O)[C@H](CO)NC(=O)[C@@H](NC(=O)[C@H](CC(=O)O)NC(=O)CNC(=O)[C@H](Cc1ccccc1)NC(=O)[C@H](CCCCN)NC(=O)[C@@H](N)C(C)C)[C@@H](C)CC)C(=O)N[C@@H](CC(N)=O)C(=O)N[C@@H](C)C(=O)N[C@@H](CO)C(=O)N[C@H](C(=O)N[C@H](C(=O)N[C@@H](CC(N)=O)C(=O)N[C@H](C(=O)N[C@@H](CCCCN)C(=O)N[C@@H](CCC(=O)O)C(=O)N[C@@H](CCC(=O)O)C(=O)N[C@H](C(=O)N[C@@H](CC(=O)O)C(=O)N[C@@H](CCCNC(=N)N)C(=O)N[C@@H](CC(C)C)C(=O)N[C@@H](Cc1ccc(O)cc1)C(=O)N[C@@H](CCC(=O)O)C(=O)N[C@H](C(=O)N[C@H](C(=O)N[C@@H](CCCCN)C(=O)N[C@@H](CC(N)=O)C(=O)N[C@@H](CC(C)C)C(=O)N[C@@H](CC(N)=O)C(=O)N[C@@H](CCC(=O)O)C(=O)N[C@@H](CO)C(=O)N[C@@H](CC(C)C)C(=O)N[C@H](C(=O)N[C@@H](CC(=O)O)C(=O)N[C@@H](CC(C)C)C(=O)N[C@@H](CCC(N)=O)C(=O)N[C@@H](CCC(=O)O)C(=O)N[C@@H](CC(C)C)C(=O)O)[C@@H](C)CC)C(C)C)C(C)C)[C@@H](C)CC)[C@@H](C)CC)C(C)C)C(C)C [P3-3] | 22700 nM
